In assay [1] the target is Cyclin-dependent kinase 2 (Homo sapiens, UniProt P24941). The assay can be described thus: Inhibition of CDK2.
Assay [2] concerns the target Cyclin-dependent kinase 4 (Homo sapiens, UniProt P11802). In words: Inhibition of CDK4.
Assay [3] deals with Cyclin-dependent kinase 1 (Homo sapiens, UniProt P06493). The assay can be described thus: Inhibition of CDK1.
Assay [4] can be described thus: Selectivity for CDK2 over CDK1.
For a further assay, the system named is EJ. The assay can be described thus: Antiproliferative activity against human EJ cells after 48 hrs. It counts as functional, cell-based.
In another assay the test system is SW-620. The assay can be described thus: Antiproliferative activity against human SW620 cells after 48 hrs. It is filed as functional, cell-based. As to conditions: SW-620, 48 h.
The next assay has as its system HCT-116. In words: cells. As to conditions: Homo sapiens, HCT-116, 48 h.
The test system of another assay is A549. In words: Antiproliferative activity against human A549 cells after 48 hrs. It counts as functional, cell-based. As to conditions: A549, 48 h.

A value given as a limit tells only on which side of the number the result lay.

Chain of Cyclin-dependent kinase 4 (P11802 whole entry): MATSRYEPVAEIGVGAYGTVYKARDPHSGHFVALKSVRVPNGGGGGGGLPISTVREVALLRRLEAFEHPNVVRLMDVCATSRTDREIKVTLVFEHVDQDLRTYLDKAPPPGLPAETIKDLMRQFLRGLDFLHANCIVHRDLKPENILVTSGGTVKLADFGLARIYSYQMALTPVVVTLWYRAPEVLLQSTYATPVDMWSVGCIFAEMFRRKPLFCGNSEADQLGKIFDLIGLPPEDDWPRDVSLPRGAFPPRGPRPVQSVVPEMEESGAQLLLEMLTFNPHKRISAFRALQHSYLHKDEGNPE
Chain of Cyclin-dependent kinase 1 (P06493 whole entry): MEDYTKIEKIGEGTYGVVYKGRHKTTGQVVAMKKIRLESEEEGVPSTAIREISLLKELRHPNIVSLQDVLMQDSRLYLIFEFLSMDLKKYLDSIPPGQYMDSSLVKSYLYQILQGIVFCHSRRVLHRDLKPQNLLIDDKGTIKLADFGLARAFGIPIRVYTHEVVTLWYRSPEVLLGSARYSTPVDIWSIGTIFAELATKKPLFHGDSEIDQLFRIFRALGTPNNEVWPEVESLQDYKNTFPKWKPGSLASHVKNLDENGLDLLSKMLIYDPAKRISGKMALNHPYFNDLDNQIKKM
Description for HCT-116: Antiproliferative activity against human HCT116 cells after 48 hrs

On to `CCCCN(CCCC)c1ccc2[nH]nc(NC(=O)Cc3ccccc3)c2c1`, for which the IC50 (as a rule, the concentration that inhibits the measured activity by half) in assay [1] was greater than 100000 nM.
As to `O=C(Cc1cccc(F)c1)Nc1n[nH]c2ccc(N3CCCS3(=O)=O)cc12`, the IC50 in assay [1] is 10 nM; in assay [2], 710 nM; in assay [3], 30 nM. Further, the Ratio IC50 in assay [4] is less than 10.
Consider `O=C(Cc1ccccc1)Nc1n[nH]c2ccc(N3CCCS3(=O)=O)cc12`, for which the IC50 in assay [1] came to 36 nM; in assay [2], 3700 nM; in the assay on EJ, 3600 nM; in the assay with SW-620, 2200 nM; with HCT-116 it was 4600 nM.
As to `CS(=O)(=O)c1ccc(CC(=O)Nc2n[nH]c3ccc(N4CCCS4(=O)=O)cc23)cc1`, the IC50 in assay [1] came out at 22 nM; in assay [2], 1400 nM; in assay [3], 200 nM; in the assay on EJ it was 35000 nM; with HCT-116 it was 48000 nM.
With `O=C(Cc1cccc2ccccc12)Nc1n[nH]c2ccc(N3CCCS3(=O)=O)cc12`, the IC50 in assay [1] was 20 nM; in assay [2] it was 3000 nM; in assay [3] it was 67 nM; in the assay on EJ it was 1300 nM; in the assay with A549, 1400 nM; in the assay on SW-620, 930 nM. In the assay on HCT-116, this compound came in with an IC50 of 2300 nM. In assay [4], the Ratio IC50 was less than 10.
With `Cc1cccc(CC(=O)Nc2n[nH]c3ccc(N4CCCS4(=O)=O)cc23)c1`, the IC50 in assay [1] came out at 10 nM; in assay [2], 4000 nM; in assay [3], 50 nM. Further, the Ratio IC50 in assay [4] was less than 10.
`CSc1ccc(CC(=O)Nc2n[nH]c3ccc(N4CCCS4(=O)=O)cc23)cc1`: the IC50 in assay [1] was found to be 10 nM; in assay [2], 1300 nM; in assay [3], 40 nM; in the assay on EJ, 280 nM; in the assay with A549, 2470 nM; in the assay on SW-620, 150 nM. The same compound displayed an IC50 in the assay on HCT-116 of 820 nM.
As for `O=C(Cc1ccccc1)Nc1n[nH]c2ccc(N3CCCC3=O)cc12`, the IC50 in assay [1] was 170 nM.
Regarding `Nc1ccc(CC(=O)Nc2n[nH]c3ccc(N4CCCS4(=O)=O)cc23)cc1`, the IC50 in assay [1] was determined as 16 nM; in assay [2], 2200 nM; in assay [3], 60 nM. Moreover, in assay [4], the Ratio IC50 is less than 10.
`O=C(Cc1ccccc1)Nc1n[nH]c2ccc(N3CCCCC3=O)cc12`: the IC50 in assay [1] came out at 7100 nM.
Take `O=C(Cc1ccc(N2CCCCC2)cc1)Nc1n[nH]c2ccc(N3CCCS3(=O)=O)cc12`: the IC50 in assay [2] is 750 nM; in assay [3], 150 nM; with EJ, 980 nM; in the assay with A549, 1100 nM; in the assay with HCT-116, 1200 nM.
Take `Cc1ccc(CC(=O)Nc2n[nH]c3ccc(N4CCCS4(=O)=O)cc23)cc1`: the IC50 in assay [1] stood at 7 nM; in assay [2], 1800 nM; in assay [3] it was 40 nM; with EJ, 1670 nM; in the assay on A549, 2570 nM; in the assay on SW-620, 1560 nM. This compound also came in with an IC50 with HCT-116 of 1770 nM. For the same compound, the Ratio IC50 in assay [4] is less than 10.
In the case of `O=C(Cc1cccc(Br)c1)Nc1n[nH]c2ccc(N3CCCS3(=O)=O)cc12`, the figures for the IC50 in assay [1], in assay [2] and in assay [3] were 7 nM, 1800 nM and 47 nM, respectively. Also, the Ratio IC50 in assay [4] is less than 10.
Regarding `O=C(Cc1ccc(-c2ccccc2)cc1)Nc1n[nH]c2ccc(N3CCCS3(=O)=O)cc12`, the IC50 in assay [1] came to 14 nM; in assay [2] it was 2200 nM; in assay [3] it was 42 nM; in the assay on EJ, 52 nM; with A549, 55 nM; in the assay with SW-620, 40 nM. Besides, the IC50 with HCT-116 stood at 180 nM.
`CCCN(CCC)c1ccc2[nH]nc(NC(=O)Cc3ccccc3)c2c1` registered an IC50 in assay [1] of 1800 nM. This counts as single-digit micromolar.
On to `O=C(Cc1ccc(Br)cc1)Nc1n[nH]c2ccc(N3CCCS3(=O)=O)cc12`, for which the IC50 in assay [1] amounted to 7 nM; in assay [2], 2000 nM; in assay [3], 22 nM; in the assay with EJ, 1570 nM; in the assay with A549, 3870 nM; in the assay with SW-620 it was 2000 nM. In addition, the IC50 in the assay with HCT-116 was 1400 nM. The Ratio IC50 in assay [4] was less than 10.
As for `O=C(Cc1ccccc1)Nc1n[nH]c2ccc([N+](=O)[O-])cc12`, the IC50 in assay [1] was 2000 nM. This counts as single-digit micromolar.
Take `CN(C)c1ccc(CC(=O)Nc2n[nH]c3ccc(N4CCCS4(=O)=O)cc23)cc1`: the IC50 in assay [1] is 10 nM; in assay [2] it was 210 nM; in assay [3] it was 28 nM; with A549, 350 nM; in the assay on HCT-116, 830 nM. Further, the Ratio IC50 in assay [4] is less than 10.
For `CCN(CC)c1ccc(CC(=O)Nc2n[nH]c3ccc(N4CCCS4(=O)=O)cc23)cc1`, the IC50 in assay [1] was 40 nM; in assay [2], greater than 1000 nM; in assay [3], 60 nM; in the assay with EJ it was 55 nM; in the assay on A549, 50 nM; with HCT-116, 220 nM.
As to `O=C(Cc1ccc2ccccc2c1)Nc1n[nH]c2ccc(N3CCCS3(=O)=O)cc12`, the IC50 amounted to 9 nM in assay [1]; 1600 nM in assay [2]; 40 nM in assay [3]; 120 nM in the assay on EJ; 90 nM in the assay on A549; 80 nM in the assay with SW-620. Further, the IC50 in the assay on HCT-116 stood at 310 nM. In assay [4], the Ratio IC50 was less than 10.
The compound `O=C(Cc1ccccc1)Nc1n[nH]c2ccc(N3C(=O)CNC3=O)cc12` displayed an IC50 in assay [1] of 2000 nM.
Take `O=C(Cc1ccc(Cl)cc1)Nc1n[nH]c2ccc(N3CCCS3(=O)=O)cc12`: the IC50 in assay [1] stood at 10 nM; in assay [2], 2000 nM; in assay [3] it was 12 nM; in the assay on EJ, 930 nM; in the assay with A549, 1500 nM; in the assay on SW-620 it was 930 nM. In the assay on HCT-116, this compound registered a concentration for half-maximal inhibition (IC50) of 1230 nM.
Regarding `O=C(Cc1ccc(F)cc1)Nc1n[nH]c2ccc(N3CCCS3(=O)=O)cc12`, the 50% inhibitory concentration (IC50) in assay [1] was 20 nM; in assay [2] it was 3000 nM; in assay [3] it was 50 nM. Also, the Ratio IC50 in assay [4] was less than 10.
In the case of `CCN(CC)c1ccc2[nH]nc(NC(=O)Cc3ccccc3)c2c1`, the IC50 in assay [1] is 200 nM.
For the compound `O=C(Cc1ccccc1Cl)Nc1n[nH]c2ccc(N3CCCS3(=O)=O)cc12`, the IC50 in assay [1] is 24 nM; in assay [2], 890 nM; in assay [3], 80 nM. For the same compound, the Ratio IC50 in assay [4] was less than 10.
In the case of `O=C(Cc1cccc(Cl)c1)Nc1n[nH]c2ccc(N3CCCS3(=O)=O)cc12`, the IC50 in assay [1] was 10 nM; in assay [2], 1050 nM; in assay [3], 34 nM. For the same compound, the Ratio IC50 in assay [4] is less than 10.
For `O=C(Cc1ccc(O)cc1)Nc1n[nH]c2ccc(N3CCCS3(=O)=O)cc12`, the IC50 in assay [1] is 9 nM; in assay [2] it was 1750 nM; in assay [3], 28 nM; in the assay on EJ, 5200 nM; in the assay with SW-620 it was 3830 nM; in the assay with HCT-116, 6530 nM.
For `CCNc1ccc2[nH]nc(NC(=O)Cc3ccccc3)c2c1`, in assay [1], 500 nM corresponded to half-maximal inhibition (IC50).
With `O=C(Cc1ccc(-c2ccncc2)cc1)Nc1n[nH]c2ccc(N3CCCS3(=O)=O)cc12`, the IC50 in assay [1] amounted to 30 nM; in assay [2], 1330 nM; in assay [3] it was 60 nM; with EJ, 1050 nM; with A549, 1400 nM; in the assay on HCT-116, 2500 nM. Moreover, the Ratio IC50 in assay [4] is less than 10.

The values above are taken from ChEMBL document CHEMBL1141545, “Synthesis and biological evaluation of 3,5-diaminoindazoles as cyclin-dependent kinase inhibitors” (Bioorg Med Chem Lett, 2008).
